This assay relates to Plasmodium falciparum. The experiment in a line: GSK_TCMDC: Inhibition of Plasmodium falciparum 3D7 in whole erythrocytes, using parasite LDH activity as an index of growth. Conditions: Plasmodium falciparum, 3D7. It is filed as functional, organism-based.
Turning to `Fc1ccc2[nH]c(-c3cccc(-c4cccc(CN5CCN(c6cnccn6)CC5)c4)c3)nc2c1`, the XC50 was found to be 1060 nM.
Take `COc1ccccc1CCCON1C(=N)N=C(N)NC1(C)C`: the XC50 turned out to be 3.2 nM.
As to `COc1ccc(O)c(C(=O)c2cc(C#N)c(=O)n(-c3ccc(Oc4ccccc4)cc3)c2)c1`, the XC50 turned out to be 737 nM.
The figure for `Cc1cccc2nc(-c3ccc(-c4ccc(CNCCNC(=O)c5ccnn5C)cc4)cc3)[nH]c12` is 480 nM; for `O=C(Nc1cccc(-c2cccc(-c3nc4cc(C(F)(F)F)ccc4[nH]3)c2)c1)Nc1ccc(F)c(F)c1F` it is 119 nM; for `O=C(NC1CCN(CC2(c3ccc(Cl)cc3)CCC2)CC1)c1cc[nH]n1` it is 421 nM.
On to `CNS(=O)(=O)CCNCc1ccc(-c2ccc3ncnc(Nc4ccc(OCc5ccccc5)cc4)c3c2)o1`, for which the XC50 worked out at 729 nM.
The result for `NC1CCN(CCNCc2cccc(-c3ccc(-c4nc5cc(F)ccc5[nH]4)cc3)c2)C1` (configuration not stated) reads 734 nM; that for `NC(=O)C1CCN(Cc2cccc(-c3cccc(-c4nc5cc(C(F)(F)F)ccc5[nH]4)c3)c2)CC1`, 641 nM; that for `CC(C)CNCc1ccc(-c2ccc(CN(CCCN3CCN(C)CC3)C(=O)CCC3CCCC3)cc2)cc1`, 1060 nM.
The figure for `Cc1cc(OCC(=O)Nc2ccc(-c3nc4ccccc4[nH]3)cc2)cc(C)c1Cl` is 742 nM; for `CC(=O)Nc1ccc(C(=O)Nc2cccc(-c3ccc(-c4nc5cccc(C)c5[nH]4)cc3)c2)cn1` it is 191 nM.
The result for `O=C(Nc1cccc(-c2ccc(-c3nc4ccccc4[nH]3)cc2)c1)Nc1ccc(F)c(F)c1F` reads 238 nM.
`O=C(/C=C/c1ccc(Cl)c(Cl)c1)NCCCCCN1CCC(NC(=O)Nc2ccc(Oc3ccccc3)cc2)C1` (configuration not stated) came in with an XC50 of 594 nM.
The molecule `CCOc1ccc(Nc2nc(N)c3ccccc3n2)cc1` displayed an XC50 of 1150 nM.
The molecule `CC(=O)Nc1ccc(CN2CCC(NC(=O)c3cc(-c4ccc(N(C)C)cc4)cs3)C2)cc1` (configuration not stated) returned an XC50 of 1170 nM.
The figure for `O=C(O[C@H]1CN[C@H](C#Cc2cc3ncnc(Nc4ccc5c(ccn5S(=O)(=O)c5cccs5)c4)c3s2)C1)N1CCOCC1` is 1100 nM.
The molecule `CCOc1ccc2nc3cc(NC(=O)c4ccco4)ccc3c(N)c2c1` came in with an XC50 of 802 nM.
In turn, `COC(=O)C(C)(C)c1ccc(CC(C)NCC(O)c2cccc(C(F)(F)F)c2)cc1` (configuration not stated) showed an XC50 of 837 nM.
`CC(C)Oc1ccccc1-c1csc(C(=O)NCC2CCN(Cc3ccc(C(C)(C)C)cc3)C2)c1` (configuration not stated): the XC50 came out at 1070 nM.
In the case of `Cc1cc(N2CCCC2)nc(Nc2ccc(NC(=O)C(C)(C)C)cc2)n1`, the XC50 was 1070 nM.
`COc1cc(NC(=O)N2CCc3ccc(OCCN(C(C)C)C(C)C)cc32)cc(C(F)(F)F)c1` yielded an XC50 of 186 nM.
The result for `Oc1ccc(CCNc2nc(NCCCOc3cc(CN4CCCCC4)ccc3F)nc(N3CCNCC3)n2)cc1` reads 1760 nM.
The figure for `Cc1cccc2nc(-c3cccc(-c4ccc(CNCCCN5CCCC5=O)cc4)c3)[nH]c12` is 956 nM.
The result for `CCN1C(c2ccc(Cl)cc2)C(CNCc2ccccc2O)CC1(C)CO` (configuration not stated) reads 311 nM; that for `O=S(=O)(c1ccc2ccccc2c1)N1CCCN(Cc2ccc(OCCCN3CCCCC3)cc2)CC1`, 1100 nM; that for `CC(=O)c1c[nH]c2ccc(/C=C/C(=O)NC3CCC(CCN4CCc5ccc(C#N)cc5CC4)CC3)cc12` (configuration not stated), 496 nM.
Regarding `COc1ccc2nccc([C@@H](O)CN3CCC(NC(=O)COc4nc(SCc5ccc(F)cc5)nc5c4CCC5)CC3)c2c1`, the XC50 is 595 nM.
The molecule `Cn1nccc1C(=O)NCCNCc1ccc(-c2cccc(-c3nc4ccccc4[nH]3)c2)cc1` showed an XC50 of 137 nM.
The molecule `CCN(CCN(C)C)Cc1ccc(-c2ccc(NS(=O)(=O)c3cccc4cccnc34)cc2)cc1` yielded an XC50 of 931 nM.
The figure for `CCOc1cc(CC)ccc1C1CCN(CCN2CCC(NC(=O)c3ccc(-c4ccc(C#N)cc4)cc3)CC2)CC1` is 610 nM; for `CN(C)c1cc(NN=Cc2cc(Cl)ccc2O)nc(N(C)C)n1` it is 703 nM; for `Cc1cc(N[C@@H](Cc2ccccc2)C(=O)NCc2cccc(F)c2)nc(NCCc2cccs2)n1` it is 622 nM.
The result for `COC(=O)c1cccc(CNCc2ccc(-c3cccc(-c4nc5cccc(C)c5[nH]4)c3)cc2)c1` reads 306 nM.
In turn, `O=C(Nc1cccc(-c2ccc(-c3nc4cc(C(F)(F)F)ccc4[nH]3)s2)c1)c1cccnc1` yielded an XC50 of 363 nM.
`Cc1ccc(S(=O)(=O)N2CCCN(C(=O)c3cc(-c4ccccc4)[nH]n3)CC2)cc1` displayed an XC50 of 84.3 nM.
The figure for `O=C(/C=C/c1ccc(Cl)cc1)NCCCCCN1CCCC(C(=O)Nc2ccc(Cl)c(Cl)c2)C1` (configuration not stated) is 833 nM; for `NC1=NC2(CCCCC2)N(OCCCCCCCCNc2nc(N)nc(N)n2)C(N)=N1` it is 59.8 nM.
The figure for `CC1(C)NC(N)=NC(=N)N1OCCCOc1ccc([N+](=O)[O-])cc1` is 3.2 nM.
The figure for `CCCCCCN1CCC(NCc2ccc(Cl)cc2)CC1` is 854 nM.
Molecule `CC1CC(C)CN(CC(O)CNC(=O)Nc2ccc(Br)cc2)C1` (configuration not stated) returned an XC50 of 1050 nM.
The figure for `CN(C(=O)Nc1ccc(F)cc1)C1CCN(CCCCCNC(=O)/C=C/c2ccc(Cl)c(Cl)c2)CC1` is 886 nM.
As for `CC(C)(C)NS(=O)(=O)c1cc(C(=O)N2CCC(CCN3CCC(C(=O)c4ccc(F)cc4)CC3)(c3cccc(F)c3)CC2)c(Cl)cc1F`, the XC50 was 746 nM.
The figure for `O=C(Nc1nc2ccc(Cl)cc2s1)c1csnn1` is 786 nM; for `CN(C)c1ccc(-c2csc(C(=O)NC3CCCCN(Cc4ccc(C(C)(C)C)cc4)C3)c2)cc1` (configuration not stated) it is 1110 nM.
`CCOc1ccc(S(=O)(=O)N(C)c2ccc(OCC(=O)Nc3nccs3)cc2)cc1` returned an XC50 of 961 nM.
The figure for `COc1ccc2c(c1)S(=O)(=O)N=C(N1CCCC1c1ccc(Cl)c(Cl)c1)N2C` (configuration not stated) is 1280 nM; for `Cc1cccc2nc(-c3ccc(-c4cccc(NC(=O)C(C)CN(C)C)c4)cc3)[nH]c12` (configuration not stated) it is 652 nM; for `Fc1ccc2[nH]c(-c3cccc(-c4cccc(CNCC5CCCO5)c4)c3)nc2c1` (configuration not stated) it is 513 nM.
The figure for `C=CCc1cc(C)ccc1OCCCON1C(N)=NC(N)=NC1(C)C` is 3.2 nM; for `CC(C)NCc1cccc(-c2cccc(-c3nc4ccccc4[nH]3)c2)c1` it is 799 nM.
The result for `CN1CCN(CCCSc2ccc3c(c2)ncn3-c2cc(OCc3ccccc3C(F)(F)F)c(C(N)=O)s2)CC1` reads 439 nM; that for `CCc1cc2c(=O)c(-c3nc(C)cs3)c(N)oc2c(CN2CCCCC2)c1O`, 658 nM.
With `COc1ccc(C=Cc2cc(=N)c3ccccc3[nH]2)cc1`, the XC50 is 969 nM.
For the molecule `CCc1ccc(CN2CCC(CN(C(=O)c3ccccc3)c3ccc(Cl)cc3)CC2)cc1`, the XC50 turned out to be 991 nM.
Molecule `COc1cc2nc(NCCc3cccc(Cl)c3)nc(NCc3ccccc3)c2cc1OC` showed an XC50 of 124 nM.
The result for `CC(=O)Nc1nc(C(=O)Nc2ccc(-c3cccc(-c4nc5cc(C(F)(F)F)ccc5[nH]4)c3)cc2)cs1` reads 184 nM.
For the molecule `COc1ccc2nccc([C@@H](O)CN3CCC(NCc4cn5cc(F)ccc5n4)CC3)c2c1`, the XC50 was 784 nM.
The result for `CCCN1CCN(CC(O)CNC(=O)Nc2ccc(Br)cc2)CC1` (configuration not stated) reads 63 nM; that for `CN(C)CCNc1ncnc2c1[nH]c1ccc(Cl)cc12`, 601 nM.
The result for `COCCn1c(-c2nc(-c3ccc(F)cc3)cnc2N)nc2ccccc21` reads 872 nM.
The result for `CCC1CN(S(=O)(=O)c2ccc3c(c2)NC(=O)CC(=O)N3)c2cc(Cl)ccc2O1` (configuration not stated) reads 656 nM.

The record behind these values is ChEMBL document CHEMBL1157539, “Thousands of chemical starting points for antimalarial lead identification” (Nature, 2010).
